Assay results reported in US20080051387A1, “TETRAHYDROPYRIDO[3,4-D]PYRIMIDINES AND RELATED ANALOGUES” (priority 2006, published 2008).

Target: T1, chimeric human H3 receptor (Homo sapiens, UniProt Q9Y5N1)
T1 construct: rat Galpha-i2 (Gnai2, rat); made in house; host or cells: Sf9 insect cells (baculovirus); P2 membranes
Test: Chimeric human H3 receptor screening GTP binding assay (inhibition of histamine-stimulated GTP-gamma35S binding, Example 8)
Format: biochemical
Conditions: 1 h; assay of Example 8; symbol "!" in column headed Ki; read-out: percent inhibition of agonist-induced GTP-gammaS binding to H3
How it was run: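 Compound tested at 4 μM against 1 μM histamine stimulation; 125 pM GTP-gamma35S binding measured by filtration and scintillation after 60 min at room temperature. Membranes from Sf9 cells expressing chimeric human H3 plus G-protein subunits, in Tris pH 7.4/NaCl/MgCl2/GDP buffer; values are % inhibition after nonspecific subtraction.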

T1 sequence (Q9Y5N1 with tags, fused parts or gaps): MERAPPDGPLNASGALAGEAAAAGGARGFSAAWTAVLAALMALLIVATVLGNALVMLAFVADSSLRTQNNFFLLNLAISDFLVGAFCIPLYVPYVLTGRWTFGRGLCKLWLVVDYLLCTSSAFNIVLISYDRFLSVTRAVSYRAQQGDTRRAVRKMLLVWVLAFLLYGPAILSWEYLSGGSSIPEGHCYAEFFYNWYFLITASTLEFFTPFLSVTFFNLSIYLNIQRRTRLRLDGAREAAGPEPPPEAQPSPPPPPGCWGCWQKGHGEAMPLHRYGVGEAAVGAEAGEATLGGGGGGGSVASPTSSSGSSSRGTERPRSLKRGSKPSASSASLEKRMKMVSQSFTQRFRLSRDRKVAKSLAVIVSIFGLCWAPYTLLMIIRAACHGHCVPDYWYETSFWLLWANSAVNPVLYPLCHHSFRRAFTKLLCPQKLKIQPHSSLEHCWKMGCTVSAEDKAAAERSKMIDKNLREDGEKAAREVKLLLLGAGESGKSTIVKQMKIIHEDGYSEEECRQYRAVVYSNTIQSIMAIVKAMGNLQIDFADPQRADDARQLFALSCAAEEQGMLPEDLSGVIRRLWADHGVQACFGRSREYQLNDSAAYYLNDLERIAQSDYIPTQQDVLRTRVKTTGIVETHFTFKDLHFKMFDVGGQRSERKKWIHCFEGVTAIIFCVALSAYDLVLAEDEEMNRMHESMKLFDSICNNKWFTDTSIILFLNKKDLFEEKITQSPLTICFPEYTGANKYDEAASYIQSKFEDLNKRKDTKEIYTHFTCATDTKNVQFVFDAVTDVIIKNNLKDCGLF

Inhibition at 4 µM, ≥ 90%:
Cc1cc(Cl)ccc1OCC(=O)N1CCc2cnc(N3CCN(C4CCC4)CC3)nc2CC1 [Compound 328, 7-[(4-chloro-2-methylphenoxy)acetyl]-2-(4-cyclobutylpiperazin-1-yl)-6,7,8,9-tetrahydro-5H-pyrimido[4,5-d]azepine]
CC(C)(C)c1ccc(OCC(=O)N2CCc3cnc(N4CCN(C5CCC5)CC4)nc3CC2)cc1 [Compound 329, 7-[(4-tert-butylphenoxy)acetyl]-2-(4-cyclobutylpiperazin-1-yl)-6,7,8,9-tetrahydro-5H-pyrimido[4,5-d]azepine]
O=C(COc1cccc(Cl)c1)N1CCc2cnc(N3CCN(C4CCC4)CC3)nc2CC1 [Compound 330, 7-[(3-chlorophenoxy)acetyl]-2-(4-cyclobutylpiperazin-1-yl)-6,7,8,9-tetrahydro-5H-pyrimido[4,5-d]azepine]
O=C(COc1ccc(Cl)cc1Cl)N1CCc2cnc(N3CCN(C4CCC4)CC3)nc2CC1 [Compound 331, 2-(4-cyclobutylpiperazin-1-yl)-7-[(2,4-dichlorophenoxy)acetyl]-6,7,8,9-tetrahydro-5H-pyrimido[4,5-d]azepine]
O=C(COc1ccc(Cl)c(Cl)c1)N1CCc2cnc(N3CCN(C4CCC4)CC3)nc2CC1 [Compound 332, 2-(4-cyclobutylpiperazin-1-yl)-7-[(3,4-dichlorophenoxy)acetyl]-6,7,8,9-tetrahydro-5H-pyrimido[4,5-d]azepine]
Cc1ccc(OCC(=O)N2CCc3cnc(N4CCN(C5CCC5)CC4)nc3CC2)c(C)c1 [Compound 333, 2-(4-cyclobutylpiperazin-1-yl)-7-[(2,4-dimethylphenoxy)acetyl]-6,7,8,9-tetrahydro-5H-pyrimido[4,5-d]azepine]
Cc1ccc(C)c(OCC(=O)N2CCc3cnc(N4CCN(C5CCC5)CC4)nc3CC2)c1 [Compound 334, 2-(4-cyclobutylpiperazin-1-yl)-7-[(2,5-dimethylphenoxy)acetyl]-6,7,8,9-tetrahydro-5H-pyrimido[4,5-d]azepine]
O=C(COc1cccc2ccccc12)N1CCc2cnc(N3CCN(C4CCC4)CC3)nc2CC1 [Compound 335, 2-(4-cyclobutylpiperazin-1-yl)-7-[(1-naphthyloxy)acetyl]-6,7,8,9-tetrahydro-5H-pyrimido[4,5-d]azepine]
O=C(COc1ccc2ccccc2c1)N1CCc2cnc(N3CCN(C4CCC4)CC3)nc2CC1 [Compound 336, 2-(4-cyclobutylpiperazin-1-yl)-7-[(2-naphthyloxy)acetyl]-6,7,8,9-tetrahydro-5H-pyrimido[4,5-d]azepine]
CC(C)(Oc1ccc(Cl)cc1)C(=O)N1CCc2cnc(N3CCN(C4CCC4)CC3)nc2CC1 [Compound 337, 7-[2-(4-chlorophenoxy)-2-methylpropanoyl]-2-(4-cyclobutylpiperazin-1-yl)-6,7,8,9-tetrahydro-5H-pyrimido[4,5-d]azepine]
CC(Oc1ccc(Cl)cc1Cl)C(=O)N1CCc2cnc(N3CCN(C4CCC4)CC3)nc2CC1 (stereo not shown) [Compound 338, 2-(4-cyclobutylpiperazin-1-yl)-7-[2-(2,4-dichlorophenoxy)propanoyl]-6,7,8,9-tetrahydro-5H-pyrimido[4,5-d]azepine]
CC(Oc1ccccc1)C(=O)N1CCc2cnc(N3CCN(C4CCC4)CC3)nc2CC1 (stereo not shown) [Compound 339, 2-(4-cyclobutylpiperazin-1-yl)-7-(2-phenoxypropanoyl)-6,7,8,9-tetrahydro-5H-pyrimido[4,5-d]azepine]
CC(Oc1cccc(Cl)c1)C(=O)N1CCc2cnc(N3CCN(C4CCC4)CC3)nc2CC1 (stereo not shown) [Compound 340, 7-[2-(3-chlorophenoxy)propanoyl]-2-(4-cyclobutylpiperazin-1-yl)-6,7,8,9-tetrahydro-5H-pyrimido[4,5-d]azepine]
